In PMC10231839, “A glycan receptor kinase facilitates intracellular accommodation of arbuscular mycorrhiza and symbiotic rhizobia in the legume Lotus japonicus” (PLOS Biology, 2023):

Assays:
EPR3a ectodomain = biological target: T1, EPR3a ectodomain (Lotus japonicus, UniProt Z9OTA2OEF3); assay: microscale thermophoresis; format: binding; settings: PBS pH 7.4, 500 mM NaCl, 0.01% Tween20, RT, labelled protein
T1 construct: ectodomain residues 25-223; native signal peptide replaced by AcGP67 signal peptide; non-cleavable C-terminal 6xHis; Sf9 insect cells; PNGase F trimmed and BLUE-NHS labelled for MST
T1 sequence (Z9OTA2OEF3 25-223): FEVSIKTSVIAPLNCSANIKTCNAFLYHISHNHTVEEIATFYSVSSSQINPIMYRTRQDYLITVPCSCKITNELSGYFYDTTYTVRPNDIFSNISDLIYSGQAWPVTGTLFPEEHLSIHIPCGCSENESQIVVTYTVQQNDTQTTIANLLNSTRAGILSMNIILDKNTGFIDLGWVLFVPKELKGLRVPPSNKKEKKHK

[1] = biological target: T2, EPR3 intracellular kinase domain (Lotus japonicus, UniProt D3KU53); assay: autophosphorylation, SDS-PAGE with Pro-Q Diamond stain; format: biochemical; settings: 20 μM ATP, 10 mM MgCl2, pH 8.0, 1 h
T2 construct: gene LYS3; intracellular kinase domain residues 259-620; E. coli Rosetta 2; His10-Arg7-SUMO tag cut by 3C protease; lambda-phosphatase dephosphorylated

[2] = biological target: T3, EPR3a intracellular kinase domain (Lotus japonicus, UniProt Z9OTA2OEF3); assay: as above; format: biochemical; settings: 20 μM ATP, 10 mM MgCl2, pH 8.0, 1 h
T3 construct: intracellular kinase domain residues 255-615; E. coli Rosetta 2; His10-Arg7-SUMO tag cut by 3C protease; lambda-phosphatase dephosphorylated
T3 sequence (Z9OTA2OEF3 255-615): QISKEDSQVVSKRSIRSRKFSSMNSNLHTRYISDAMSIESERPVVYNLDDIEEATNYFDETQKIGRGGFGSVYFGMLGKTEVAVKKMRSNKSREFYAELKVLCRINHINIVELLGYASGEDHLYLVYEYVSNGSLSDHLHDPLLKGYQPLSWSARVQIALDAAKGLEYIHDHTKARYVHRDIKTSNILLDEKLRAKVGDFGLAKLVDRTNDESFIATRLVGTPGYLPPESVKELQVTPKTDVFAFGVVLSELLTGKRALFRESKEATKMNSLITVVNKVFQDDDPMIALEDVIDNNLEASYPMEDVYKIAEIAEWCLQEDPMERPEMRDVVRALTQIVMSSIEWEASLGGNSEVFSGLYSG

T2 sequence (D3KU53 entry or part of it): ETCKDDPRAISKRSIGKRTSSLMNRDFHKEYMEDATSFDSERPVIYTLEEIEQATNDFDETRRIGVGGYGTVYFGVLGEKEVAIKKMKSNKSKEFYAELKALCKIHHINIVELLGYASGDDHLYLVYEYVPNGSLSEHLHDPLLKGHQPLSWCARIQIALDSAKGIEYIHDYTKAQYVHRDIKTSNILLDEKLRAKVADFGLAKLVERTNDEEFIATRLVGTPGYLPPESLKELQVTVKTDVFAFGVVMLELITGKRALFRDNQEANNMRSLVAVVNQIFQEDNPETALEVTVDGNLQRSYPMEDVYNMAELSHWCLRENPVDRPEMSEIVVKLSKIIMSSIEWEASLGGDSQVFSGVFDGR

Molecule | Kd (EPR3a ectodomain) [µM] | also measured
S. indica β-1,3/β-1,6 decasaccharide |  | Kd (EPR3a ectodomain; first (high-affinity) of two binding events): 51 ± 23 µM
OC[C@H]1O[C@@H](O[C@@H]2[C@@H](O)[C@H](O[C@@H]3[C@@H](O)[C@H](O[C@@H]4[C@@H](O)[C@H](O[C@H]5[C@H](O)[C@@H](CO)OC(O)[C@@H]5O)O[C@H](CO)[C@H]4O)O[C@H](CO)[C@H]3O)O[C@H](CO)[C@H]2O)[C@H](O)[C@@H](O)[C@@H]1O (some centres unmarked) [laminaripentaose] | ~850 | 
S. meliloti EPS | 937 ± 389 | 
M. loti EPS | 44.4 ± 11.2 | 
R. leguminosarum EPS | 12.5 ± 4 | 
Nc1ncnc2c1ncn2[C@@H]1O[C@H](COP(=O)(O)OP(=O)(O)OP(=O)(O)O)[C@@H](O)[C@H]1O [ATP] |  | autophosphorylation, SDS-PAGE with Pro-Q Diamond stain [1]: EPR3a and EPR3 are able to autophosphorylate; autophosphorylation, SDS-PAGE with Pro-Q Diamond stain [2]: EPR3a and EPR3 are able to autophosphorylate
OC[C@H]1O[C@@H](O[C@@H]2[C@@H](O)[C@H](O[C@@H]3[C@@H](O)[C@H](O[C@@H]4[C@@H](O)[C@H](O[C@@H]5[C@@H](O)[C@H](O[C@H]6[C@H](O)[C@@H](CO)OC(O)[C@@H]6O)O[C@H](CO)[C@H]5O)O[C@H](CO)[C@H]4O)O[C@H](CO)[C@H]3O)O[C@H](CO)[C@H]2O)[C@H](O)[C@@H](O)[C@@H]1O (some centres unmarked) [laminarihexaose] | ~670 | 
